# Experimental data: ChEMBL document CHEMBL4325853, “Design, synthesis and antibacterial evaluation of 2,4-disubstituted-6-thiophenyl-pyrimidines” (Eur J Med Chem, 2019)
# Columns and labels:
# Format in all cases: functional
# [1] = test system: Staphylococcus aureus; assay: Antibacterial activity against methicillin-resistant Staphylococcus aureus isolate 4127 after 18 hrs by broth microdilution method; conditions: isolate 4127, 18 h
# [2] = test system: Staphylococcus aureus; assay: Antibacterial activity against methicillin-resistant Staphylococcus aureus isolate 7247 after 18 hrs by broth microdilution method; conditions: isolate 7247, 18 h
# [3] = test system: Staphylococcus aureus; assay: Antibacterial activity against methicillin-resistant Staphylococcus aureus isolate 7536 after 18 hrs by broth microdilution method; conditions: isolate 7536, 18 h
# [4] = test system: Staphylococcus aureus; assay: Antibacterial activity against methicillin-resistant Staphylococcus aureus isolate 1708 after 18 hrs by broth microdilution method; conditions: isolate 1708, 18 h
# [5] = test system: Staphylococcus aureus; assay: Antibacterial activity against methicillin-resistant Staphylococcus aureus isolate 4548 after 18 hrs by broth microdilution method; conditions: isolate 4548, 18 h
# [6] = test system: Staphylococcus aureus; assay: Antibacterial activity against methicillin-resistant Staphylococcus aureus isolate 8162 after 18 hrs by broth microdilution method; conditions: isolate 8162, 18 h
# [7] = test system: Staphylococcus aureus; assay: Antibacterial activity against methicillin-resistant Staphylococcus aureus isolate 5035 after 18 hrs by broth microdilution method; conditions: isolate 5035, 18 h
# [8] = test system: Staphylococcus aureus; assay: Antibacterial activity against methicillin-resistant Staphylococcus aureus isolate 7682 after 18 hrs by broth microdilution method; conditions: isolate 7682, 18 h
# [9] = test system: Staphylococcus aureus; assay: Antibacterial activity against methicillin-resistant Staphylococcus aureus isolate 3096 after 18 hrs by broth microdilution method; conditions: isolate 3096, 18 h
# [10] = test system: Staphylococcus aureus; assay: Antibacterial activity against methicillin-resistant Staphylococcus aureus ATCC BAA41 after 18 hrs by broth microdilution method; conditions: ATCC BAA41, 18 h
# [11] = test system: Staphylococcus aureus; assay: Antibacterial activity against methicillin-resistant Staphylococcus aureus isolate 7972 after 18 hrs by broth microdilution method; conditions: isolate 7972, 18 h
# [12] = test system: Staphylococcus aureus; assay: Antibacterial activity against methicillin-resistant Staphylococcus aureus isolate 6334 after 18 hrs by broth microdilution method; conditions: isolate 6334, 18 h
# [13] = test system: Staphylococcus aureus; assay: Antibacterial activity against methicillin-resistant Staphylococcus aureus isolate 3170 after 18 hrs by broth microdilution method; conditions: isolate 3170, 18 h
# [14] = test system: Staphylococcus aureus; assay: Antibacterial activity against methicillin-resistant Staphylococcus aureus isolate 8179 after 18 hrs by broth microdilution method; conditions: isolate 8179, 18 h
# [15] = test system: Staphylococcus aureus; assay: Antibacterial activity against methicillin-resistant Staphylococcus aureus isolate 7844 after 18 hrs by broth microdilution method; conditions: isolate 7844, 18 h
# [16] = test system: Staphylococcus aureus; assay: Antibacterial activity against methicillin-resistant Staphylococcus aureus isolate 1610 after 18 hrs by broth microdilution method; conditions: isolate 1610, 18 h
# [17] = test system: Staphylococcus aureus; assay: Antibacterial activity against methicillin-resistant Staphylococcus aureus isolate 7664 after 18 hrs by broth microdilution method; conditions: isolate 7664, 18 h
# [18] = test system: Staphylococcus aureus; assay: Antibacterial activity against methicillin-resistant Staphylococcus aureus isolate 5239 after 18 hrs by broth microdilution method; conditions: isolate 5239, 18 h
# [19] = test system: Escherichia coli; assay: Antibacterial activity against Escherichia coli ATCC 25922 after 18 hrs by broth microdilution method; conditions: ATCC 25922, 18 h
# [20] = test system: Staphylococcus aureus; assay: Antibacterial activity against methicillin-resistant Staphylococcus aureus isolate 1947 after 18 hrs by broth microdilution method; conditions: isolate 1947, 18 h
# [21] = test system: Staphylococcus aureus; assay: Antibacterial activity against methicillin-resistant Staphylococcus aureus isolate 7917 after 18 hrs by broth microdilution method; conditions: isolate 7917, 18 h
# [22] = test system: Staphylococcus aureus; assay: Antibacterial activity against methicillin-resistant Staphylococcus aureus isolate 5395 after 18 hrs by broth microdilution method; conditions: isolate 5395, 18 h
# [23] = test system: Staphylococcus aureus; assay: Antibacterial activity against methicillin-resistant Staphylococcus aureus isolate 4023 after 18 hrs by broth microdilution method; conditions: isolate 4023, 18 h
# [24] = test system: Staphylococcus aureus; assay: Antibacterial activity against methicillin-resistant Staphylococcus aureus isolate 7813 after 18 hrs by broth microdilution method; conditions: isolate 7813, 18 h
# [25] = test system: Staphylococcus aureus; assay: Antibacterial activity against methicillin-resistant Staphylococcus aureus isolate 7947 after 18 hrs by broth microdilution method; conditions: isolate 7947, 18 h
# [26] = test system: Staphylococcus aureus; assay: Antibacterial activity against methicillin-resistant Staphylococcus aureus isolate 7587 after 18 hrs by broth microdilution method; conditions: isolate 7587, 18 h
# [27] = test system: Staphylococcus aureus; assay: Antibacterial activity against methicillin-resistant Staphylococcus aureus isolate 2158 after 18 hrs by broth microdilution method; conditions: isolate 2158, 18 h
# [28] = test system: Staphylococcus aureus; assay: Antibacterial activity against methicillin-resistant Staphylococcus aureus ATCC BAA1720 after 18 hrs by broth microdilution method; conditions: ATCC BAA1720, 18 h
# [29] = test system: Staphylococcus aureus; assay: Antibacterial activity against methicillin-resistant Staphylococcus aureus isolate 7864 after 18 hrs by broth microdilution method; conditions: isolate 7864, 18 h
# [30] = test system: Enterococcus faecalis; assay: Antibacterial activity against vancomycin-resistant Enterococcus faecalis ATCC 700221 after 18 hrs by broth microdilution method; conditions: ATCC 700221, 18 h
# [31] = test system: Staphylococcus aureus; assay: Antibacterial activity against methicillin-resistant Staphylococcus aureus isolate 1651 after 18 hrs by broth microdilution method; conditions: isolate 1651, 18 h
# [32] = test system: Enterococcus faecium; assay: Antibacterial activity against Enterococcus faecium ATCC 49624 after 18 hrs by broth microdilution method; conditions: ATCC 49624, 18 h
# [33] = test system: Staphylococcus aureus; assay: Antibacterial activity against methicillin-resistant Staphylococcus aureus ATCC 43300 after 18 hrs by broth microdilution method; conditions: ATCC 43300, 18 h
# [34] = test system: Staphylococcus aureus; assay: Antibacterial activity against methicillin-resistant Staphylococcus aureus isolate 8078 after 18 hrs by broth microdilution method; conditions: isolate 8078, 18 h
# [35] = test system: Staphylococcus aureus; assay: Antibacterial activity against methicillin-resistant Staphylococcus aureus isolate 5426 after 18 hrs by broth microdilution method; conditions: isolate 5426, 18 h
smiles,measurement,setting,value
CN[C@H](CC(C)C)C(=O)N[C@H]1C(=O)N[C@@H](CC(N)=O)C(=O)N[C@H]2C(=O)N[C@H]3C(=O)N[C@H](C(=O)N[C@H](C(=O)O)c4cc(O)cc(O)c4-c4cc3ccc4O)[C@H](O)c3ccc(c(Cl)c3)Oc3cc2cc(c3O[C@@H]2O[C@H](CO)[C@@H](O)[C@H](O)[C@H]2O[C@H]2C[C@](C)(N)[C@H](O)[C@H](C)O2)Oc2ccc(cc2Cl)[C@H]1O [VANCOMYCIN],MIC90,[1],1 µg/mL
same,MIC90,[2],1 µg/mL
same,MIC90,[3],1 µg/mL
same,MIC90,[4],1 µg/mL
same,MIC90,[5],2 µg/mL
same,MIC90,[6],1 µg/mL
same,MIC90,[7],1 µg/mL
same,MIC90,[8],1 µg/mL
same,MIC90,[9],1 µg/mL
same,MIC90,[10],2 µg/mL
same,MIC90,[11],1 µg/mL
same,MIC90,[12],1 µg/mL
same,MIC90,[13],2 µg/mL
same,MIC90,[14],1 µg/mL
same,MIC90,[15],1 µg/mL
same,MIC90,[16],1 µg/mL
same,MIC90,[17],0.5 µg/mL
same,MIC90,[18],1 µg/mL
same,MIC90,[19],2 µg/mL
same,MIC90,[20],2 µg/mL
same,MIC90,[21],1 µg/mL
same,MIC90,[22],1 µg/mL
same,MIC90,[23],2 µg/mL
same,MIC90,[24],1 µg/mL
same,MIC90,[25],1 µg/mL
same,MIC90,[26],2 µg/mL
same,MIC90,[27],1 µg/mL
same,MIC90,[28],2 µg/mL
same,MIC90,[29],1 µg/mL
same,MIC90,[30],> 64 µg/mL
same,MIC90,[31],2 µg/mL
same,MIC90,[32],2 µg/mL
same,MIC90,[33],2 µg/mL
same,MIC90,[34],2 µg/mL
same,MIC90,[35],1 µg/mL
